According to patent US8772343B2, “Chemical compounds” (Pfizer Limited, priority 2010, dated 2014):

What follows are molecules tested against T1, Nav1.7 (or SCN9A) channel (Homo sapiens, UniProt Q15858) (assay: Nav1.7 PatchXpress automated whole-cell electrophysiology in HEK cells expressing hSCN9A). Conditions: estimated IC50 from single point data, PatchXpress assay, held at V1/2 of inactivation, read-out: Nav1.7 EIC50.
T1 construct: expressed in transfected cells
T1 sequence (Q15858 whole entry): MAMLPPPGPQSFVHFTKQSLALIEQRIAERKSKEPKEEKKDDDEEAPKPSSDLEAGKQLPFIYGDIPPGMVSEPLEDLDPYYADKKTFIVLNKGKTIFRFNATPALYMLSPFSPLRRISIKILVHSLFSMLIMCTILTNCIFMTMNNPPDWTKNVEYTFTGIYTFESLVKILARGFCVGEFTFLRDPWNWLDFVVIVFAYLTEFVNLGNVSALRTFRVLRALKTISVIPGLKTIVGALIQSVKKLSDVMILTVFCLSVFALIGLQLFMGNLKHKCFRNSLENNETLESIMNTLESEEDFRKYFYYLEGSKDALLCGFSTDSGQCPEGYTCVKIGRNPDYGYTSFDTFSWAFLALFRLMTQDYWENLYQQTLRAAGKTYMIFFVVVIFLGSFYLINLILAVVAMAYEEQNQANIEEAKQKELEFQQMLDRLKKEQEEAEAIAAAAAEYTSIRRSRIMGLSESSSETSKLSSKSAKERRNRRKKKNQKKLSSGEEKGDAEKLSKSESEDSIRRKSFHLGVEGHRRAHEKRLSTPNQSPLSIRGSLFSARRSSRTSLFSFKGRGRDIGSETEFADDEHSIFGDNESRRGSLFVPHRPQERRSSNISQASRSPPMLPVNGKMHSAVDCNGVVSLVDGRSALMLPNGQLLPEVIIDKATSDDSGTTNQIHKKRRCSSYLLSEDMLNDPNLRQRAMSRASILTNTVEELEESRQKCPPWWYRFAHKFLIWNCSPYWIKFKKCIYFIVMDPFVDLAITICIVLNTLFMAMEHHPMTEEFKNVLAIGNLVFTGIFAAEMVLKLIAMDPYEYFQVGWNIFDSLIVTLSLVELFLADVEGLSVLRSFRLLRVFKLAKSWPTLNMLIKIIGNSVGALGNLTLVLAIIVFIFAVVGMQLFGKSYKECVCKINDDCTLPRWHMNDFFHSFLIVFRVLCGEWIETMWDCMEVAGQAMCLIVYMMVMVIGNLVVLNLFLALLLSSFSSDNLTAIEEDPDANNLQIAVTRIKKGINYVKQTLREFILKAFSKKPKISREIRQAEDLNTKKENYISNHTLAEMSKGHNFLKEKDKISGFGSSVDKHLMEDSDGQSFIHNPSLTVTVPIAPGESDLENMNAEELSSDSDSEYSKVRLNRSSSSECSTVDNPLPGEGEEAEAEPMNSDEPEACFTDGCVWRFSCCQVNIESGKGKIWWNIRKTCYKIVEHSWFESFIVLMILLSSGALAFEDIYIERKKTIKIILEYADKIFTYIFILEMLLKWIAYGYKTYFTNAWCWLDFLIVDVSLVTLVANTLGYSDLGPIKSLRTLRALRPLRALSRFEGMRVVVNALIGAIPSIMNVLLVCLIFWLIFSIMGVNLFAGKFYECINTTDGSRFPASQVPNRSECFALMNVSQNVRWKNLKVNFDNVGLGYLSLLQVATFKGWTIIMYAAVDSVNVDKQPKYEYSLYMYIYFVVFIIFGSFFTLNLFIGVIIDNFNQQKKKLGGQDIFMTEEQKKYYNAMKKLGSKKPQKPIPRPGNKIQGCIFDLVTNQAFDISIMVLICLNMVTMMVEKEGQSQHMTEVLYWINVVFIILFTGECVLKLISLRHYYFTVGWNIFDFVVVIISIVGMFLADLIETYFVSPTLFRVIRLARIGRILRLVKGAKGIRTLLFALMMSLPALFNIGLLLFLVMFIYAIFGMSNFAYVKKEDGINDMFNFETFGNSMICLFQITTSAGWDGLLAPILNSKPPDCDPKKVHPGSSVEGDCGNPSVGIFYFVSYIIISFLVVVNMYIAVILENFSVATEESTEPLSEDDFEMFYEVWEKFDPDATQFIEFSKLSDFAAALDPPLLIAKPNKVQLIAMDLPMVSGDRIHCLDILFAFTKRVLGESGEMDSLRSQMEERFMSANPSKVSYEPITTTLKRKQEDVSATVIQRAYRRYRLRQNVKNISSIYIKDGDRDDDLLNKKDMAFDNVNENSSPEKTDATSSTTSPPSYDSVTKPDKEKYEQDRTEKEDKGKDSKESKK
Format: cell-based
Description: The ability of the compounds of formula (I) to block the Nav1.7 (or SCN9A) channel were measured using the assay described below.
Human Embryonic Kidney (HEK) cells were transfected with an hSCN9A construct using lipofectamine reagent (Invitrogen), using standard techniques. Cells stably expressing the hSCN9A constructs were identified by their resistance to G-418 (400 μg/ml). Clones were screened for expression using the whole-cell voltage-clamp technique.
HEK cells stably transfected with hSCN9A were maintained in DMEM medium supplemented with 10% heat-inactivated fetal bovine serum and 400 μg/ml G-418 in an incubator at 37° C. with a humidified atmosphere of 10% CO2. For HTS, cells were harvested from flasks by trypsinization and replated in an appropriate multi-well plate (typically 96 or 384 wells/plate) such that confluence would be achieved within 24 hours of plating. For electrophysiological studies, cells were removed from the culture flask by brief trypsinization and re-plated at low density onto glass cover slips. Cells were typically used for electrophysiological experiments within 24 to 72 hours after plating.
Cover slips containing HEK cells expressing hSCN9A were placed in a bath on the stage of an inverted microscope and perfused (approximately 1 ml/minutes) with extracellular solution of the following composition: 138 mM NaCl, 2 mM CaCl2, 5.4 mM KCl, 1 mM MgCl2, 10 mM glucose, and 10 mM HEPES, pH 7.4, with NaOH. […] The osmolarity of the extracellular and intracellular solutions was 300 mOsm/kg and 295 mOsm/kg, respectively. All recordings were made at room temperature (22-24° C.) using AXOPATCH 200B amplifiers and PCLAMP software (Axon Instruments, Burlingame, Calif.).
hSCN9A currents in HEK cells were measured using the whole-cell configuration of the patch-clamp technique (Hamill et al., 1981). Uncompensated series resistance was typically 2 to 5 mega ohms and >85% series resistance compensation was routinely achieved. As a result, voltage errors were negligible and no correction was applied. Current records were acquired at 20 to 50 KHz and filtered at 5 to 10 KHz.
HEK cells stably transfected with hSCN9A were viewed under Hoffman contrast optics and placed in front of an array of flow pipes emitting either control or compound-containing extracellular solutions. All compounds were dissolved in dimethyl sulfoxide to make 10 mM stock solutions, which were then diluted into extracellular solution to attain the final concentrations desired. […] The voltage-dependence of inactivation was determined by applying a series of depolarizing prepulses (8 sec long in 10 mV increments) from a negative holding potential. The voltage was then immediately stepped to 0 mV to assess the magnitude of the sodium current. Currents elicited at 0 mV were plotted as a function of prepulse potential to allow estimation of the voltage at which 50% of the channels were inactivated (midpoint of inactivation or V1/2). Compounds were tested for their ability to inhibit hSCN9A sodium channels by activating the channel with a 20 msec voltage step to 0 mV following an 8 second conditioning prepulse to the empirically determined V1/2. Compound effect (% inhibition) was determined by difference in current amplitude before and after application of test compounds. For ease of comparison, “estimated IC-50” (EIC50) values were calculated from single point electrophysiology data by the following equation, (tested concentration, uM)×(100-% inhibition/% inhibition). Inhibition values<20% and >80% were excluded from the calculation.
Electrophysiological assays were conducted with PatchXpress 7000 hardware and associated software (Molecular Devices Corp). All assay buffers and solutions were identical to those used in conventional whole-cell voltage clamp experiments described above. hSCN9A cells were grown as above to 50%-80% confluency and harvested by trypsinization. […]
Molecule COc1ccc(-c2cc(C(=O)NS(C)(=O)=O)ccc2Oc2ccc(Cl)cc2)c(C)n1 [Example 42, 4-(4-chlorophenoxy)-3-(6-methoxy-2-methylpyridin-3-yl)-N-(methylsulfonyl)benzamide] has an IC50 of 7500 nM. With CS(=O)(=O)NC(=O)c1ccc(Oc2ccc(Cl)cc2)c(-c2ccc(C(F)(F)F)cc2)c1 [Example 43, 6-(4-chlorophenoxy)-N-(methylsulfonyl)-4′-(trifluoromethyl)biphenyl-3-carboxamide] the IC50 was 630 nM. In the case of COc1cc(-c2cc(C(=O)NS(C)(=O)=O)ccc2Oc2ccc(Cl)cc2)ccn1 [Example 45, 4-(4-chlorophenoxy)-3-(2-methoxypyridin-4-yl)-N-(methylsulfonyl)benzamide], the IC50 is reported as 2000 nM. Work on COc1ncccc1-c1cc(C(=O)NS(C)(=O)=O)ccc1Oc1ccc(Cl)cc1 [Example 47, 4-(4-chlorophenoxy)-3-(2-methoxypyridin-3-yl)-N-(methylsulfonyl)benzamide] yielded an IC50 of 92 nM. Cn1cc(-c2cc(C(=O)NS(C)(=O)=O)ccc2Oc2ccc(Cl)cc2)cn1 [Example 48, 4-(4-chlorophenoxy)-3-(1-methyl-1H-pyrazol-4-yl)-N-(methylsulfonyl)benzamide] gave an IC50 of 9800 nM. CS(=O)(=O)NC(=O)c1ccc(Oc2ccc(Cl)cc2)c(-c2cnc(N)nc2)c1 [Example 49, 3-(2-aminopyrimidin-5-yl)-4-(4-chlorophenoxy)-N-(methylsulfonyl)benzamide] was tested, and the IC50 was > 3000 nM. For COc1ccc(-c2cc(C(=O)NS(C)(=O)=O)ccc2Oc2ccc(Cl)cc2)cc1 [Example 50, 6-(4-chlorophenoxy)-4′-methoxy-N-(methylsulfonyl)-biphenyl-3-carboxamide], the IC50 was 730 nM. In the case of COc1ncccc1-c1cc(C(=O)NS(C)(=O)=O)ccc1Oc1ccccc1F [Example 51, 4-(2-fluorophenoxy)-3-(2-methoxypyridin-3-yl)-N-(methylsulfonyl)benzamide], the IC50 is reported as 1700 nM. In the case of COc1ncccc1-c1cc(C(=O)NS(C)(=O)=O)ccc1Oc1cccc(Cl)c1 [Example 52, 4-(3-chlorophenoxy)-3-(2-methoxypyridin-3-yl)-N-(methylsulfonyl)benzamide], the IC50 is reported as 460 nM. Work on COc1ncccc1-c1cc(C(=O)NS(C)(=O)=O)ccc1Oc1cc(F)cc(Cl)c1 [Example 53, 4-(3-chloro-5-fluorophenoxy)-3-(2-methoxypyridin-3-yl)-N-(methylsulfonyl)benzamide] yielded an IC50 of 120 nM. Molecule COc1ncccc1-c1cc(C(=O)NS(C)(=O)=O)ccc1Oc1cccc(C(C)C)c1 [Example 54, 4-(3-isopropylphenoxy)-3-(2-methoxypyridin-3-yl)-N-(methylsulfonyl)benzamide] has an IC50 of 120 nM. COc1ncccc1-c1cc(C(=O)NS(C)(=O)=O)ccc1Oc1ccc(F)c(F)c1 [Example 55, 4-(3,4-difluorophenoxy)-3-(2-methoxypyridin-3-yl)-N-(methylsulfonyl)benzamide] showed an IC50 of 440 nM. With COc1ncccc1-c1cc(C(=O)NS(C)(=O)=O)ccc1Oc1ccc(C#N)cc1 [Example 56, 4-(4-cyanophenoxy)-3-(2-methoxypyridin-3-yl)-N-(methylsulfonyl)benzamide] the IC50 was 2400 nM. COc1cc(Cl)cc(Oc2ccc(C(=O)NS(C)(=O)=O)cc2-c2cccnc2OC)c1 [Example 57, 4-(3-chloro-5-methoxyphenoxy)-3-(2-methoxypyridin-3-yl)-N-(methylsulfonyl)benzamide] was tested, and the IC50 was 660 nM. With COc1ncccc1-c1cc(C(=O)NS(C)(=O)=O)ccc1Oc1ccccc1OC(F)(F)F [Example 58, 3-(2-methoxypyridin-3-yl)-N-(methylsulfonyl)-4-[2-(trifluoromethoxy)phenoxy]benzamide] the IC50 was > 1000 nM. For COc1ncccc1-c1cc(C(=O)NS(C)(=O)=O)ccc1Oc1cccc(F)c1 [Example 59, 4-(3-fluorophenoxy)-3-(2-methoxypyridin-3-yl)-N-(methylsulfonyl)benzamide], the IC50 was 370 nM. CCc1cc(Oc2ccc(C(=O)NS(C)(=O)=O)cc2-c2cccnc2OC)ccc1Cl [Example 60, 4-(4-chloro-3-ethylphenoxy)-3-(2-methoxypyridin-3-yl)-N-(methylsulfonyl)benzamide] was tested, and the IC50 was 18 nM. Molecule COc1ncccc1-c1cc(C(=O)NS(C)(=O)=O)ccc1Oc1cccc(C(F)(F)F)c1 [Example 61, 3-(2-methoxypyridin-3-yl)-N-(methylsulfonyl)-4-[3-(trifluoromethyl)phenoxy]benzamide] has an IC50 of 66 nM. For COCc1ccc(Oc2ccc(C(=O)NS(C)(=O)=O)cc2-c2cccnc2OC)cc1 [Example 62, 4-[4-(methoxymethyl)phenoxy]-3-(2-methoxypyridin-3-yl)-N-(methylsulfonyl)benzamide], the IC50 was 1200 nM. In the case of CCc1ccc(Oc2ccc(C(=O)NS(C)(=O)=O)cc2-c2cccnc2OC)cn1 [Example 63, 4-[(6-ethylpyridin-3-yl)oxy]-3-(2-methoxypyridin-3-yl)-N-(methylsulfonyl)benzamide], the IC50 is reported as 3900 nM. With COc1ncccc1-c1cc(C(=O)NS(C)(=O)=O)ccc1Oc1ccc(Cl)cc1F [Example 64, 4-(4-chloro-2-fluorophenoxy)-3-(2-methoxypyridin-3-yl)-N-(methylsulfonyl)benzamide] the IC50 was 540 nM. For COc1ccc(Oc2ccc(C(=O)NS(C)(=O)=O)cc2-c2cccnc2OC)cc1 [Example 65, 4-(4-methoxyphenoxy)-3-(2-methoxypyridin-3-yl)-N-(methylsulfonyl)benzamide], the IC50 was 640 nM. In the case of COc1ncccc1-c1cc(C(=O)NS(C)(=O)=O)ccc1Oc1ccc(Cl)c(F)c1 [Example 66, 4-(4-chloro-3-fluorophenoxy)-3-(2-methoxypyridin-3-yl)-N-(methylsulfonyl)benzamide], the IC50 is reported as 98 nM. CCOc1ccccc1Oc1ccc(C(=O)NS(C)(=O)=O)cc1-c1cccnc1OC [Example 67, 4-(2-ethoxyphenoxy)-3-(2-methoxypyridin-3-yl)-N-(methylsulfonyl)benzamide] gave an IC50 of 2800 nM. Molecule COc1ncccc1-c1cc(C(=O)NS(C)(=O)=O)ccc1Oc1cccc(OC(F)(F)F)c1 [Example 68, 3-(2-methoxypyridin-3-yl)-N-(methylsulfonyl)-4-[3-(trifluoromethoxy)phenoxy]benzamide] has an IC50 of 83 nM. Molecule COc1ncccc1-c1cc(C(=O)NS(C)(=O)=O)ccc1Oc1cc(F)cc(F)c1 [Example 69, 4-(3,5-difluorophenoxy)-3-(2-methoxypyridin-3-yl)-N-(methylsulfonyl)benzamide] has an IC50 of 440 nM. In the case of COc1ccc(Oc2ccc(C(=O)NS(C)(=O)=O)cc2-c2cccnc2OC)cn1 [Example 70, 3-(2-methoxypyridin-3-yl)-4-[(6-methoxypyridin-3-yl)oxy]-N-(methylsulfonyl)benzamide], the IC50 is reported as 2200 nM. COc1ncccc1-c1cc(C(=O)NS(C)(=O)=O)ccc1Oc1cccc(C#N)c1 [Example 71, 4-(3-cyanophenoxy)-3-(2-methoxypyridin-3-yl)-N-(methylsulfonyl)benzamide] showed an IC50 of 2500 nM. Work on COc1ncccc1-c1cc(C(=O)NS(C)(=O)=O)ccc1Oc1cc(F)cc(C(F)(F)F)c1 [Example 72, 4-[3-fluoro-5-(trifluoromethyl)phenoxy]-3-(2-methoxypyridin-3-yl)-N-(methylsulfonyl)benzamide] yielded an IC50 of 100 nM. COc1ncccc1-c1cc(C(=O)NS(C)(=O)=O)ccc1Oc1ccc(C)cc1 [Example 73, 3-(2-methoxypyridin-3-yl)-4-(4-methylphenoxy)-N-(methylsulfonyl)benzamide] was tested, and the IC50 was 170 nM.
